Measurements taken from publication PMC1977912 (British Journal of Cancer, 1992).
“Also recorded” adds a separate entry of the source. Where two headings read alike, the source gives them in different places.

Key:
AR4-2J cells [1] = assay: Reversal by exogenous gastrin of antagonist-induced inhibition of AR4-2J proliferation; type: cell-based, rat; settings: 5 x 10^-7 M gastrin added 2 h before the antagonist at its growth IC50
AR4-2J cells [2] = assay: Inhibition of unsynchronised AR4-2J cell proliferation by gastrin/CCK receptor antagonists (MTT assay, direct cell counts); type: cell-based; settings: Rattus norvegicus, AR-42J, 96 h, read-out: half maximal inhibitory concentration, AR4-2J proliferation
gastrin/CCK-B receptors = target: T1, gastrin/CCK-B receptors (Rattus norvegicus, UniProt P30553); assay: Displacement of 125I-hG17-1 binding to AR4-2J cells; settings: read-out: IC50 for displacing 125I-hG17-1 binding
T1 construct: AR4-2J cells were harvested, washed three times with Eagle's modified essential medium; host or cells: AR4-2J rat pancreatic acinar tumour cells (intact cells)
T1 sequence (P30553 1-452): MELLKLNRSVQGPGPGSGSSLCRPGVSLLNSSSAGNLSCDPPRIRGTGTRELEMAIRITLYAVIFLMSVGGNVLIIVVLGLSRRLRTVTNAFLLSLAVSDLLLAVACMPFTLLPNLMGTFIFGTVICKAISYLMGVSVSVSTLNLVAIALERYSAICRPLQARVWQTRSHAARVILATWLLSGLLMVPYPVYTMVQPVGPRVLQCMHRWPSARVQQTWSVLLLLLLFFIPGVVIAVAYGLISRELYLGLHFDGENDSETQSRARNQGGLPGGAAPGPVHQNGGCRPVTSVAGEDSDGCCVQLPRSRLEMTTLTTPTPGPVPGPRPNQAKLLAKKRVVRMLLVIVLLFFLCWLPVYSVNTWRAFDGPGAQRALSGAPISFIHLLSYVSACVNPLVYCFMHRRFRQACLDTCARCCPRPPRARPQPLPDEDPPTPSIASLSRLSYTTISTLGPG

HT-29 cells = assay: HT-29 cell proliferation (MTT assay); type: cell-based, human
AR4-2J cells [3] = assay: Effect of exogenous gastrin on AR4-2J proliferation in serum-free medium (MTT assay); type: cell-based, rat; settings: up to 5 x 10^-6 M

Compound | effect of prior addition of gastrin on the inhibition of cell growth (AR4-2J cells [1]) | also measured
CCCCCN(CCCCC)C(=O)C(CCC(=O)O)NC(=O)c1ccc(Cl)c(Cl)c1 (racemic) [lorglumide, D, L-4-(3,4-dichlorobenzoylamino)-5-(di-n-pentylamino)-5-oxo-pentanoic acid] | partially reversed | –
CCCCCN(CCCOC)C(=O)C(CCC(=O)O)NC(=O)c1ccc(Cl)c(Cl)c1 (racemic) [loxiglumide, D,L-4-(3,4-di-chlorobenzoylamino) -5-(N-3-methoxypropylpentylamino)-5-oxo-pentanoic acid] | partially reversed | –
CCCN(CCC)C(=O)C(CCC(=O)O)NC(=O)c1ccccc1 (racemic) [proglumide, D,L-4-benzamido-N,N-di-n-propylgluta-ramic acid] | partially reversed | IC50 (AR4-2J cells [2]; 4 day incubation, text statement of range): 3000 µM; IC50 (gastrin/CCK-B receptors): 1300 µM
Cc1cccc(NC(=O)N[C@@H]2N=C(c3ccccc3)c3ccccc3N(C)C2=O)c1 [L-365,260, 3R(+)-N-(2,3-dihydro-1-methyl-2-oxo-5-phenyl-1H-1 ,4-benzodiazepin-3-yl) -N'-(3-methylphenyl)urea] | not reversed; also recorded: not significantly effected | –
O=C(N[C@@H](Cc1c[nH]c2ccccc12)C(=O)O)c1ccc(Cl)cc1 [benzotript, N-p-chlorobenzoyl-L- tryptophan] | partially reversed | IC50 (gastrin/CCK-B receptors): 260 µM
CN1C(=O)[C@@H](NC(=O)c2cc3ccccc3[nH]2)N=C(c2ccccc2)c2ccccc21 [devazepide, 3S (- )-N-(2,3-dihydro-l-methyl-2-oxo-5-phenyl-1 H-1,4-benzodiazepine-3-yl) -1H-indole-2-carboxamide] | not reversed; also recorded: not significantly effected | IC50 (AR4-2J cells [2]): 17 µM
gastrin | – | effect on HT-29 proliferation (HT-29 cells): neither exogenous gastrin nor an anti-gastrin Ig preparation effected proliferation; effect on proliferation of asynchronous AR4-2J cells (AR4-2J cells [3]): no significant effect
